13 compounds from patent publication US20140286903A1, “Substituted Purine Nucleosides, Phosphoramidate and Phosphordiamidate Derivatives for Treatment if Viral Infections” (INHIBITEX, INC., priority 2011, published 2014) can be followed below.

In series [1] the test system is HCV replicon (Genotype 1b). Put plainly: Luciferase genotype 1b replicon potency assay. The format is cell-based, hepatitis C virus. To be noted: Hepatitis C virus, Huh-7, Huh7 luciferase-reporter genotype 1b subgenomic replicon cells; Renilla luciferase reporter activity; 50% decrease vs untreated cells. How it is done: (§1) Further to the above Examples, representative compounds, prepared according to the examples were tested for potency in an HCV replicon assay (Genotype 1b) for activity against the virus (EC50) and toxicity to the cells (CC50).
(§2) Huh7 Replicon Cell Lines and Cell Culture Conditions: A luciferase-reporter genotype 1b subgenomic replicon cell line, and a genotype 1a full-length replicon cell line were obtained from Apath, LLC, Brooklyn, N.Y.: All cell lines were passaged twice a week by splitting 4 or 6 fold. Cells were maintained in DMEM-high glucose medium (HyClone, Logan, Utah) supplemented with 9% FBS (HyClone), 2 mM glutamine (Invitrogen, Carlsbad, Calif.), 100 U/mL PenStrep (Invitrogen). Media also contained 0.25 mg/mL of the antibiotic G-418 to maintain stable expression of the replicon (Invitrogen). Incubation was performed at 37° C. in 5% CO2 atmosphere. Replicon cell lines were used until they accumulated 15-to-18 passages, after which cells were restarted from the frozen stock. Seeding cell counts were routinely determined using an automatic Cedex HiRes cell counter (Flownomics Analytical Instruments, Madison, Wis.) or manually using INCYTO C-Chip™ Disposable Hemacytometers (Fisher Scientific, Pittsburg, Pa.).
Luciferase Genotype 1b Replicon Potency Assay. Replicon cells were seeded into white 96-well plates (Nunc/VWR) at a density of 2×10^4 cells/well in medium without G-418. A Stacker Multidrop Liquid Dispenser (MTX Lab Systems, Vienna, Va.) was employed to ensure uniform and fast cell seeding into multiple plates. 18-24 h after cell plating, inhibitors were added and cells were incubated for additional 24, 48, or 72 h (as indicated). Compounds were tested in triplicates and quadruplicates at 3× or 4× serial dilutions over a range of 0.0001-to-10 μM concentrations. HCV replication was monitored by Renilla luciferase reporter activity assay using Renilla luciferase reporter (Promega, Madison, Wis.) and a Veritas Luminometer (Turner Biosystems, Sunnyvale, Calif.). 50% and 90% inhibitory concentration (IC50 and IC90) values were calculated as the concentration of compound that results correspondingly in 50% and 90% decreases in the reporter expression as compared to untreated cells. The values were determined by non-linear regression (four-parameter sigmoidal curve fitting) analysis.
On the technique in general: A replicon is a self-replicating genome or part of one, used to study replication in cells.

Series [2] is described as follows: Cytotoxicity assay (CellTiter-Glo). The format is cell-based. To be noted: human, 72 h incubation, concentration resulting in 50% luminescent signal. As for the experimental part: as §1, §2
Cytotoxicity Assay. Cells were seeded into 96-well plates at a density of 2×10^4 cells per well. 24 h after cell plating, 11 serial 2× compound dilutions, starting with 100 µM, were applied to the testing plates (3 repeats per compound dilution). Each testing plate was run with a “no-compound” control. Incubation with compounds was continued at 37° C. in a CO2 incubator for 72 h. To determine cell viability, the CellTiter-Glo® assay (Promega, Madison, Wis.) was performed according to the manufacturer's protocol. The compound concentration resulting in 50% luminescent signal was reported as the CC50 concentration.

pIC50: −log10 of the molar value.

For `CCOc1nc(N)nc2c1ncn2[C@@H]1O[C@H](COP(=O)(N[C@@H](C)C(=O)OC2CCCC2)Oc2cccc3ccccc23)[C@@H](F)[C@@]1(C)O` (stereo partly drawn) [Example 21, (2S)-Cyclopentyl 2-((((2R,3R,4S,5R)-5-(2-amino-6-ethoxy-9H-purin-9-yl)-3-fluoro-4-hydroxy-4-methyltetrahydrofuran-2-yl)methoxy)(naphthalen-1-yloxy)phosphorylamino)propanoate], the pIC50 (in general, the negative decadic logarithm of the IC50, by convention in mol/L) in series [1] is 6.40. Further, the midpoint of cytotoxicity in series [2], the CC50 at 72 h, lay at 28 µM.
In the same order, the values of `CCOc1nc(N)nc2c1ncn2[C@@H]1O[C@H](COP(=O)(N[C@@H](C)C(=O)OC2CCCCC2)Oc2cccc3ccccc23)[C@@H](F)[C@@]1(C)O` (stereo partly drawn) [Example 22, (2S)-Cyclohexyl 2-((((2R,3R,4S,5R)-5-(2-amino-6-ethoxy-9H-purin-9-yl)-3-fluoro-4-hydroxy-4-methyltetrahydrofuran-2-yl)methoxy)(naphthalen-1-yloxy)phosphorylamino)propanoate] are 6.14 and 16 µM.
The compound `C[C@H](NP(=O)(OC[C@H]1O[C@@H](n2cnc3c(N4CCC4)nc(N)nc32)[C@](C)(O)[C@@H]1F)Oc1cccc2ccccc12)C(=O)OCC(C)(C)C` (stereo partly drawn) [Example 23, (2S)-Neopentyl 2-((((2R,3R,4S,5R)-5-(2-amino-6-(azetidin-1-yl)-9H-purin-9-yl)-3-fluoro-4-hydroxy-4-methyltetrahydrofuran-2-yl)methoxy)(naphthalen-1-yloxy)phosphorylamino)propanoate] showed a pIC50 in series [1] of 6.05. In series [2], it took 49 µM to reach half-maximal cytotoxicity (CC50 at 72 h).
In the same order, the values of `C[C@H](NP(=O)(OC[C@H]1O[C@@H](n2cnc3c(N4CCC4)nc(N)nc32)[C@](C)(O)[C@@H]1F)Oc1cccc2ccccc12)C(=O)OC1CCCC1` (stereo partly drawn) [Example 24, (2S)-Cyclopentyl 2-((((2R,3R,4S,5R)-5-(2-amino-6-(azetidin-1-yl)-9H-purin-9-yl)-3-fluoro-4-hydroxy-4-methyltetrahydrofuran-2-yl)methoxy)(naphthalen-1-yloxy)phosphorylamino)propanoate] are 6.05 and 50 µM.
`C[C@H](NP(=O)(OC[C@H]1O[C@@H](n2cnc3c(N4CCC4)nc(N)nc32)[C@](C)(O)[C@@H]1F)Oc1cccc2ccccc12)C(=O)OC1CCCCC1` (stereo partly drawn) [Example 25, (2S)-Cyclohexyl 2-((((2R,3R,4S,5R)-5-(2-amino-6-(azetidin-1-yl)-9H-purin-9-yl)-3-fluoro-4-hydroxy-4-methyltetrahydrofuran-2-yl)methoxy)(naphthalen-1-yloxy)phosphorylamino)propanoate] had a pIC50 in series [1] of 6.02. Further, in series [2], the CC50 (in general, the concentration giving 50% cytotoxicity) at 72 h turned out to be 33 µM.
In the same order, the values of `COc1nc(N)nc2c1ncn2[C@@H]1O[C@H](COP(=O)(N[C@H](C(=O)OCc2ccccc2)C(C)C)Oc2cccc3ccccc23)[C@@H](F)[C@@]1(C)O` (stereo partly drawn) [Example 26, (2S)-Benzyl 2-((((2R,3R,4S,5R)-5-(2-amino-6-methoxy-9H-purin-9-yl)-3-fluoro-4-hydroxy-4-methyltetrahydrofuran-2-yl)methoxy)(naphthalen-1-yloxy)phosphorylamino)-3-methylbutanoate] are 5.40 and 14 µM.
`COc1nc(N)nc2c1ncn2[C@@H]1O[C@H](COP(=O)(N[C@@H](C)C(=O)OCC(C)(C)C)N[C@@H](C)C(=O)OCC(C)(C)C)[C@@H](F)[C@@]1(C)O` [Example 27, (2S,2′S)-Neopentyl 2,2′-((((2R,3R,4S,5R)-5-(2-amino-6-methoxy-9H-purin-9-yl)-3-fluoro-4-hydroxy-4-methyltetrahydrofuran-2-yl)methoxy)phosphoryl)bis(azanediyl)dipropanoate]: in series [1], the pIC50 is 5.68. This compound came in with a CC50 at 72 h in series [2] (Huh7 HCV replicon cells (genotype 1b)) of more than 100 µM.
`COc1nc(N)nc2c1ncn2[C@@H]1O[C@H](COP(=O)(N[C@@H](C)C(=O)OCc2ccccc2)Oc2cccc3ccccc23)[C@H](F)[C@@]1(C)O` (stereo partly drawn) [Example 28, (2S)-Benzyl 2-((((2R,3S,4S,5R)-5-(2-amino-6-methoxy-9H-purin-9-yl)-3-fluoro-4-hydroxy-4-methyltetrahydrofuran-2-yl)methoxy)(naphthalen-1-yloxy)phosphorylamino)propanoate] had a pIC50 in series [1] of less than 4.40. Moreover, in series [2], it took 92 µM to reach half-maximal cytotoxicity (CC50 at 72 h).
On the same counts, the results for `COc1nc(N)nc2c1ncn2[C@@H]1O[C@H](COP(=O)(N[C@@H](C)C(=O)OCC(C)(C)C)Oc2cccc3ccccc23)[C@H](F)[C@@]1(C)O` (stereo partly drawn) [Example 29, (2S)-Neopentyl 2-((((2R,3S,4S,5R)-5-(2-amino-6-methoxy-9H-purin-9-yl)-3-fluoro-4-hydroxy-4-methyltetrahydrofuran-2-yl)methoxy)(naphthalen-1-yloxy)phosphorylamino)propanoate] are 4.59 and 40 µM.
For the compound `COc1nc(N)nc2c1ncn2[C@@H]1O[C@H](COP(=O)(N[C@H](C(=O)OCc2ccccc2)C(C)C)Oc2cccc3ccccc23)[C@H](F)[C@@]1(C)O` (stereo partly drawn) [Example 30, (2S)-Benzyl 2-((((2R,3S,4S,5R)-5-(2-amino-6-methoxy-9H-purin-9-yl)-3-fluoro-4-hydroxy-4-methyltetrahydrofuran-2-yl)methoxy)(naphthalen-1-yloxy)phosphorylamino)-3-methylbutanoate], in series [1], the pIC50 is 4.96. This compound also displayed a cytotoxic concentration (CC50) at 72 h in series [2] of 19 µM.
In the same order, the values of `C[C@H](NP(=O)(OC[C@H]1O[C@@H](n2cnc3c(N)ncnc32)[C@](C)(O)[C@@H]1F)Oc1cccc2ccccc12)C(=O)OCC(C)(C)C` (stereo partly drawn) [Example 31, (2S)-Neopentyl 2-((((2R,3R,4S,5R)-5-(6-amino-9H-purin-9-yl)-3-fluoro-4-hydroxy-4-methyltetrahydrofuran-2-yl)methoxy)(naphthalen-1-yloxy)phosphorylamino)propanoate] are 4.96 and 31 µM.
In the same order, the values of `C[C@H](NP(=O)(OC[C@H]1O[C@@H](n2ccc(N)nc2=O)[C@](C)(O)[C@@H]1F)Oc1cccc2ccccc12)C(=O)OCC(C)(C)C` (stereo partly drawn) [Example 32, (2S)-Neopentyl 2-((((2R,3R,4S,5R)-5-(4-amino-2-oxopyrimidin-1(2H)-yl)-3-fluoro-4-hydroxy-4-methyltetrahydrofuran-2-yl)methoxy)(naphthalen-1-yloxy)phosphorylamino)propanoate] are less than 4.40 and more than 100 µM.
On the same counts, the results for `C[C@H](NP(=O)(OC[C@H]1O[C@@H](n2ccc(=O)[nH]c2=O)[C@](C)(O)[C@@H]1F)Oc1cccc2ccccc12)C(=O)OCC(C)(C)C` (stereo partly drawn) [Example 33, (2 S)-Neopentyl 2-((((2R,3R,4S,5R)-5-(2,4-dioxo-3,4-dihydropyrimidin-1(2H)-yl)-3-fluoro-4-hydroxy-4-methyltetrahydrofuran-2-yl)methoxy)(naphthalen-1-yloxy)phosphorylamino)propanoate] are less than 4.40 and 75 µM.
